Laboratory results published in patent US10206394B2, “Herbicidal compounds” (Syngenta Participations AG, priority 2014, dated 2019).
Where two headings read alike, the source gives them in different places.

Tests used:
Experiment in all cases: Glasshouse assay for herbicidal activity (pre- and post-emergence), percentage phytotoxicity
Assay type in all cases: in vivo
[1] = test system: Alopecurus myosuroides (ALOMY); conditions: Alopecurus myosuroides, rate 250 g/ha
Summary of the method: (§1)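 Visually rated damage, 0–100%. PRE spray 1 d after sowing, scored 20 DAA; POST spray ~12 d, scored 15 DAA. Glasshouse at 65% humidity, 16 h day.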

Avena fatua (AVEFA) = conditions: Avena fatua, rate 250 g/ha
Summary of the method: as §1

Lolium perenne (LOLPE) = conditions: Lolium perenne, rate 250 g/ha
Summary of the method: as §1

[2] = test system: Echinochloa crus-galli (ECHCG); conditions: Echinochloa crus-galli, rate 250 g/ha
Summary of the method: as §1

[3] = post-emergence, 360 h, POST-emergence, visual score 15 DAA (100%=total damage, 0%=no damage), read-out: Post-emergence herbicidal activity (percentage phytotoxicity) ALOMY POST
[4] = pre-emergence, 480 h, PRE-emergence, visual score 20 DAA (100%=total damage, 0%=no damage), read-out: Pre-emergence herbicidal activity (percentage phytotoxicity) ALOMY PRE
[5] = post-emergence, 360 h, POST-emergence, visual score 15 DAA (100%=total damage, 0%=no damage), read-out: Post-emergence herbicidal activity (percentage phytotoxicity) AVEFA POST
[6] = pre-emergence, 480 h, PRE-emergence, visual score 20 DAA (100%=total damage, 0%=no damage), read-out: Pre-emergence herbicidal activity (percentage phytotoxicity) AVEFA PRE
[7] = post-emergence, 360 h, POST-emergence, visual score 15 DAA (100%=total damage, 0%=no damage), read-out: Post-emergence herbicidal activity (percentage phytotoxicity) LOLPE POST
[8] = pre-emergence, 480 h, PRE-emergence, visual score 20 DAA (100%=total damage, 0%=no damage), read-out: Pre-emergence herbicidal activity (percentage phytotoxicity) LOLPE PRE
[9] = post-emergence, 360 h, POST-emergence, visual score 15 DAA (100%=total damage, 0%=no damage), read-out: Post-emergence herbicidal activity (percentage phytotoxicity) ECHCG POST
[10] = pre-emergence, 480 h, PRE-emergence, visual score 20 DAA (100%=total damage, 0%=no damage), read-out: Pre-emergence herbicidal activity (percentage phytotoxicity) ECHCG PRE

| Compound | pest or weed control at 250 g/ha [1, 3] [%] | pest or weed control at 250 g/ha [1, 4] [%] | pest or weed control at 250 g/ha (Avena fatua (AVEFA); [5]) [%] | pest or weed control at 250 g/ha (Avena fatua (AVEFA); [6]) [%] | pest or weed control at 250 g/ha (Lolium perenne (LOLPE); [7]) [%] | pest or weed control at 250 g/ha (Lolium perenne (LOLPE); [8]) [%] | pest or weed control at 250 g/ha [2, 9] [%] | pest or weed control at 250 g/ha [2, 10] [%] |
| --- | --- | --- | --- | --- | --- | --- | --- | --- |
| CCNC(=O)CC1CC(=O)C(c2c(C)cc(-c3ncc(C#N)cn3)cc2C)C1=O (stereo not drawn) [Compound B286] | 100 | 100 | 100 | 90 | 100 | 90 | 100 | 100 |
| C=C(C)CNC(=O)CC1CC(=O)C(c2c(C)cc(-c3ncc(C#N)cn3)cc2C)C1=O (stereo not drawn) [Compound B287] | 90 | 90 | 100 | 90 | 90 | 90 | 100 | 100 |
| Cc1cc(-c2ncc(C#N)cn2)cc(C)c1C1C(=O)CC(CC(=O)N2CCOCC2)C1=O (stereo not drawn) [Compound B288] | 100 | 80 | 90 | 80 | 90 | 90 | 100 | 90 |
| Cc1cc(-c2ncc(F)cc2F)cc(C)c1C1C(=O)CC(CC(=O)NC2CC2F)C1=O (stereo not drawn) [Compound B289] | 100 | 100 | 100 | 100 | 100 | 100 | 100 | 100 |
| Cc1cc(-c2ncc(F)cc2F)cc(C)c1C1C(=O)CC(CC(=O)NC/C=C/Cl)C1=O (stereo not drawn) [Compound B290] | 100 | 100 | 100 | 100 | 100 | 100 | 100 | 100 |
| C/C=C/CNC(=O)CC1CC(=O)C(c2c(C)cc(-c3ncc(F)cc3F)cc2C)C1=O (stereo not drawn) [Compound B291] | 90 | 100 | 100 | 90 | 90 | 100 | 100 | 100 |
| Cc1cc(-c2ncc(F)cn2)cc(C)c1C1C(=O)CC(CC(=O)NC2CC2(F)F)C1=O (stereo not drawn) [Compound B292] | 100 | 100 | 100 | 90 | 90 | 70 | 100 | 100 |
| Cc1cc(-c2ncc(F)cn2)cc(C)c1C1C(=O)CC(CC(=O)NC2CC2F)C1=O (stereo not drawn) [Compound B293] | 100 | 90 | 100 | 60 | 90 | 90 | 100 | 90 |
| C=C(F)CNC(=O)CC1CC(=O)C(c2c(C)cc(-c3ncc(F)cn3)cc2C)C1=O (stereo not drawn) [Compound B294] | 100 | 90 | 100 | 100 | 100 | 100 | 100 | 100 |
| Cc1cc(-c2ccc(C#N)cn2)cc(C)c1C1C(=O)CC(CC(=O)NCc2cccc(Cl)c2)C1=O (stereo not drawn) [Compound B295] | 90 | 80 | 100 | 60 | 90 | 90 | 100 | 90 |
| Cc1cc(-c2ccc(Br)cn2)cc(C)c1C1C(=O)CC(CC(=O)NC(C)C)C1=O (stereo not drawn) [Compound B296] | 100 | 90 | 100 | 90 | 100 | 90 | 100 | 100 |
| C#CC(C)(C)NC(=O)CC1CC(=O)C(c2c(C)cc(-c3ccc(Br)cn3)cc2C)C1=O (stereo not drawn) [Compound B297] | 100 | 90 | 100 | 90 | 100 | 90 | 100 | 100 |
| C=C(C)CNC(=O)CC1CC(=O)C(c2c(C)cc(-c3ccc(Br)cn3)cc2C)C1=O (stereo not drawn) [Compound B298] | 100 | 90 | 100 | 90 | 90 | 90 | 100 | 100 |
| Cc1cc(-c2ccc(Br)cn2)cc(C)c1C1C(=O)CC(CC(=O)N2CCOCC2)C1=O (stereo not drawn) [Compound B299] | 90 | 90 | 90 | 90 | 100 | 100 | 100 | 100 |
| C=CC(C)NC(=O)CC1CC(=O)C(c2c(C)cc(-c3ncc(Cl)cc3F)cc2C)C1=O (stereo not drawn) [Compound B300] | 100 | 100 | 100 | 100 | 100 | 100 | 100 | 100 |
| C=CC(C)NC(=O)CC1CC(=O)C(c2c(C)cc(Br)cc2C)C1=O (stereo not drawn) [Compound B301] | 70 | 80 | 70 | 50 | 50 | 70 | 70 | 60 |
| Cc1cc(-c2ncc(F)cn2)cc(C)c1C1C(=O)CC(CC(=O)NC/C=C/Cl)C1=O (stereo not drawn) [Compound B302] | 100 | 100 | 100 | 100 | 100 | 100 | 100 | 100 |
| C/C=C/CNC(=O)CC1CC(=O)C(c2c(C)cc(-c3ncc(F)cn3)cc2C)C1=O (stereo not drawn) [Compound B303] | 100 | 90 | 100 | 80 | 100 | 80 | 100 | 100 |
